This note sets out measurements from publication PMC5833756, “A novel ruthenium complex with xanthoxylin induces S-phase arrest and causes ERK1/2-mediated apoptosis in HepG2 cells through a p53-independent pathway” (Cell Death & Disease, 2018).

In test [1] the test system is HepG2 cells. Description: DNA synthesis quantification (methyl-[3H]-thymidine incorporation). In kind it is cell-based, human. On the procedure: Cellular DNA synthesis was quantified by the incorporation of methyl-[^3H]-thymidine. Methyl-[^3H]-thymidine is a radiolabeled DNA precursor that is incorporated into newly synthesized DNA. Briefly, the complex was added along with 1 µCi of methyl-[^3H]-thymidine (PerkinElmer; Shelton, CT, USA) and incubated for 3 h. After this incubation period, cultures were harvested using a cell harvester (Brandel, Inc., Gaithersburg, MD, USA), and the amount of incorporated^3H-thymidine was determined using a liquid scintillation cocktail Hidex Maxilight (PerkinElmer Life Sciences; Groningen, GE, Netherlands) and a plate CHAMELEON V multilabel Counter (Mustionkatu 2, Turku, Finland). Mitoxantrone (Sigma-Aldrich) was used as the positive control.
(Dividing cells build labelled thymidine or BrdU into new DNA.)

Test [2] has as its system HepG2 cells. Kind of test: Mitochondrial transmembrane potential (rhodamine 123). The class given is cell-based, human. Particulars: HepG2, 24 h. On the procedure:
Mitochondrial transmembrane potential was determined by the retention of the rhodamine 123 dye[38]. Cells were incubated with rhodamine 123 (5 μg/mL, Sigma-Aldrich Co.) at 37 °C for 15 min in the dark and washed with saline.

The next test relates to caspase-3. Kind of test: Caspase-3 colorimetric activation assay. The class given is cell-based, human. Particulars: HepG2, 48 h. The protocol: A caspase-3 colorimetric assay kit (Sigma-Aldrich), caspase-8 colorimetric assay kit (BioVision Inc.; Milpitas, CA, USA) and caspase-9 colorimetric assay kit (Invitrogen; Frederick, MD, USA) were used to investigate the activation of caspase-3, -8 and -9 in RCX-treated HepG2, respectively. […] Briefly, cells were lysed by incubation with cell lysis buffer on ice for 10 min and then centrifuged. Enzyme reactions were carried out in a 96-well flat-bottom microplate. To each reaction mixture, 5 μL of cell lysate was added. Absorbance at 405 nm was measured using the SpectraMax 190 Microplate Reader (Molecular Devices). The results are expressed as the specific activity (IU/mg protein) of each caspase.

Another test has as its system ERK1/2 (pT202/pY204). Kind of test: Phosflow analysis. In kind it is cell-based, human. Particulars: HepG2, 12 µM RCX, 15 min, 30 min, 24 h. On the procedure: (§1) Phosphorylated ERK 1/2, JNK/SAPK and p38 MAPK were analyzed by flow cytometry. In brief, cells were collected and resuspended in 0.5–1 mL of 4% formaldehyde and fixed for 10 min at 37 °C. Then, the tubes were chilled on ice for 1 min. The cells were permeabilized by slowly adding ice-cold 100% methanol to prechilled cells while gently vortexing to a final concentration of 90% methanol and were incubated for 30 min on ice. After washing with incubation buffer (0.5% bovine serum albumin in PBS), PE mouse anti-ERK1/2 (pT202/pY204), PE mouse anti-JNK/SAPK (pT183/pY185), PE mouse anti-p38 MAPK (pT180/pY182) or PE mouse IgG1, κ isotype control antibodies, all from BD Biosciences, were added and incubated for 1 h at room temperature.

The subject of the next test is JNK/SAPK (pT183/pY185). Kind of test: Phosflow analysis. Particulars: HepG2, 12 µM RCX, 15 min, 30 min, 24 h. In kind it is cell-based, human. On the procedure: as §1
A further test has as its system p38 MAPK (pT180/pY182). Description: Phosflow analysis. In kind it is cell-based, human. Particulars: HepG2, 12 µM RCX, 15 min, 30 min, 24 h. On the procedure:
as §1

The subject of test [3] is HepG2 cells. Description: Annexin V/PI staining assay (flow cytometry). Particulars: HepG2, 12 and 24 µM, 12-72 h. A general note: A flow cytometer gives signals particle by particle.
Method: For apoptosis detection, we used the FITC Annexin V Apoptosis Detection Kit I (BD Biosciences), and the analysis was performed according to the manufacturer’s instructions. Briefly, cells were washed twice with saline and then resuspended in 100 μL of binding buffer with 5 μL of PI and 5 μL of FITC Annexin V. The cells were gently mixed by vortexing and incubated for 15 min at room temperature in the dark. Afterwards, 400 μL of binding buffer was added to each tube, and the cell fluorescence was determined by flow cytometry, as described above. The percent of viable, early apoptotic, late apoptotic and necrotic cells were determined. […] The cells were then trypsinized, and the FITC Annexin V Apoptosis Detection assay was conducted as described above.
The next test relates to HepG2 cell xenografts. Kind of test: Human hepatocellular carcinoma xenograft model. In kind it is in vivo, C.B-17 SCID mice. Particulars: 0.3 mg/kg doxorubicin, 10 mg/kg 5-fluorouracil, i.p. once a day for 21 days. In general terms: Xenograft models place foreign cells or tissue in a host animal.

Each structure is given as a SMILES string.

Method for HepG2 cell xenografts: Animals were housed in cages with free access to food and water. All animals were kept under a 12:12 h light-dark cycle (lights on at 6:00 a.m.). The local Animal Ethics Committee approved the experimental protocol (number 06/2015).
HepG2 cells (1 × 10^7 cells per 500 µL) were implanted subcutaneously into the left front armpit of the mice. […] The treatments were initiated one day after the tumor cell injection. The animals were treated intraperitoneally (200 µL per animal) once daily for 21 consecutive days. On the 22nd day, the animals were anesthetized, and peripheral blood samples were collected from the brachial artery. Animals were euthanized by anesthetic overdose, and tumors were excised and weighed.

On to `COc1cc([O-])c(C(C)=O)c(OC)c1.F[P-](F)(F)(F)(F)F.[Ru+2].c1cnc2c(c1)ccc1cccnc12.c1cnc2c(c1)ccc1cccnc12` [RCX, cis-[Ru(phen)2(xant)](PF6)], for which the “reduction of DNA synthesis” value in the test on HepG2 cells [1] (HepG2, 12 μM) came out at 46.4%; in the test with HepG2 cells [1] (HepG2, 24 μM), 65.2%. Also, the mitochondrial membrane potential entry with HepG2 cells [2] is “induced mitochondrial depolarization”. Moreover, in the test on caspase-3, the caspase-3 activity result was “caused the activation of all caspases analyzed”. Moreover, the “phosphorylation of ERK1/2” value in the test on ERK1/2 (pT202/pY204) was “induced the phosphorylation of ERK1/2 after 15- and 30-min incubations”. For the same molecule, the “phosphorylation of JNK/SAPK” value in the test with JNK/SAPK (pT183/pY185) is on record as “the phosphorylation of JNK/SAPK after a 15-min incubation”. Besides, the “phosphorylation of p38 MAPK” value in the test on p38 MAPK (pT180/pY182) was “an increase in the phosphorylation of p38 MAPK was not observed at any time point investigated”. Also, in the test with HepG2 cells [3], the induction of apoptosis result was “caused apoptosis in a time- and concentration-dependent manner”.

Take `COc1cccc2c1C(=O)c1c(O)c3c(c(O)c1C2=O)C[C@@](O)(C(=O)CO)C[C@@H]3O[C@H]1C[C@H](N)[C@H](O)[C@H](C)O1` [DOX, doxorubicin]: the “reduction of tumor weight” value in the test with HepG2 cell xenografts is given as 27.2%.
